Data: patent US6844333B1, “Method of treating atherosclerosis” (The Trustees of the University of Pennsylvania, priority 1999, dated 2005)

How the values were obtained:
[1] = Quantitative serum lipid analysis (cholesterol, triglyceride) in cholesterol-fed rabbits; format: in vivo, Male New Zealand White rabbits; conditions: change relative to control group; estriol 1 mg/kg; haloperidol 1/10/5 mg/kg s.c. daily
From the text: (§1) Serum lipid levels and I/M were expressed as the mean+SEM for all animals. The changes in lipid levels before and after the treatment period were compared using paired t-tests. The differences between the treatment groups and controls were compared using analysis of variance (ANOVA) techniques. Repeated Measures ANOVA was used to compare the difference in plaque loads among the five groups. Multiple regression models were used to compare the differences in plaque loads between the four treatment groups and the control group, adjusting for the difference in cholesterol and triglyceride levels. P<0.05 was considered statistically significant.

[2] = test system: aortic atherosclerotic plaque in hypercholesterolemic rabbits; assay: Histomorphometric analysis of aortic plaque load (I/M); format: in vivo, Male New Zealand White rabbits; conditions: for aortic plaque load vs controls after controlling for changes in serum C and T levels (multiple regression): estriol 1 mg/kg (P=0.052), haloperidol 1/10/5 mg/kg (P=0.069); for (I/M)/(I/M)CG: relative to control group, estriol 1 mg/kg, haloperidol 1/10/5 mg/kg s.c. daily
Description: Five-micron, serial histologic sections (15 each) of 27 ascending aortas were cut from paraffin blocks, stained with hematoxylin and eosin (H&E) and were studied by light microscopy. Images of tissue sections were captured to a Power Macintosh 7300/200 computer by a Hitachi 3-CCD Color Camera (model HV-C20) attached to a Nikon Eclipse E600 microscope. With digital imaging (IPLap Spectrum, Signal Analytics Corporation, Vienna, Va.), they were then analyzed by manual color segmentation by tracting the endothelial surface (intima), internal elastic lamina, and external elastic lamina of each vessel. From segmented images, intimal and medial areas were computed, allowing calculation of intima to media ratios. Plaque load for each aorta was defined as the ratio of intimal area to medial area (I/M).
as §1

human monocytes = assay: Inhibition of human monocyte/macrophage Fcγ receptor mediated phagocytosis; format: cell-based; conditions: 90 min at 37° C.; for % Phagocytic Cells (percent of monocytes/macrophages phagocytosing IgG sensitized cells): buffer control 42%; for PI (phagocytic index, ingested IgG-sensitized cells per 100 monocytes): buffer control 105
Description: The agents to be tested (haloperidol, SCH-23390 and sulpiride) were incubated with human monocytes isolated using lymphocyte separation medium. Incubation was for 90 min at 37° C. Buffer (PBS) treated cells served as a control. At the end of the incubation period, monocytes were exposed to IgG-sensitized cells in accordance with the phagocytic assay of Indik et al, Blood 86:4389 (1995).

[3] = rabbit, in vivo
Description: (§2) Male New Zealand White rabbits (3.2-4.9 pounds each) were fed a 0.5% cholesterol chow diet for 12 weeks and randomly assigned to five groups (n=6 each); one control group (CG) and four groups treated with estriol (E), haloperidol (H), low-dose 17-hydroxyprogesterone (LDP), or high-dose 17-hydroxyprogesterone (HDP). Serum cholesterol (C) and triglyceride (T) were measured before and after the treatment period in all groups; serum progesterone was determined only in the LDP and HDP groups. After the treatment period, rabbits were euthanized for histomorphometric analysis of aortic plaque load. The rabbits were treated according to the Animal Welfare Act specifications.
(§3) Vehicle only (CG) and vehicle plus steroid (treated groups) were administered daily subcutaneously. Steroid doses were as follows: estriol, 1 mg/kg; haloperidol, 1 mg/kg for 2 weeks, 10 mg/kg for 2 weeks, and 5 mg/kg for 8 weeks; low-dose 17-hydroxyprogesterone, 10 mg/kg; high-dose 17-hydroxyprogesterone, 90 mg/kg.
(§4) After 91-100 days of treatment, twenty-seven rabbits were euthanized for histomorphometric analysis of aortic plaque load.

[4] = Tolerability / survival during 12-week treatment; conditions: E: after 18 days; H: at 39 and 71 days, failure to thrive; n=6 per group
Description: as §2, §3, §4

[5] = test system: aortic atherosclerosis in hypercholesterolemic rabbits; assay: Gross examination of the aortas (occlusion); format: in vivo, Male New Zealand White rabbits; conditions: treated animals vs control
From the text: With the control animals, there was about 42% occlusion. With the low dose progesterone there was 6% occlusion and with the high dose progesterone there was 0% occlusion evident.

| Compound | Cholesterol Δ/ΔCG [1] | Triglyceride Δ/ΔCG [1] | aortic plaque load vs controls after controlling for changes in serum C and T levels (multiple regression) [2] | (I/M)/(I/M)CG [2] | % Phagocytic Cells (percent of monocytes/macrophages phagocytosing IgG sensitized cells) (human monocytes; 50 μM PBS/methanol) [%] | PI (phagocytic index, ingested IgG-sensitized cells per 100 monocytes) (human monocytes; 50 μM PBS/methanol) | tolerance of dose by rabbits [3] | rabbits that died or were sacrificed during treatment [4] | atherosclerosis on gross examination of the aortas (in words) [5] | % Phagocytic Cells (percent of monocytes/macrophages phagocytosing IgG sensitized cells) (human monocytes; 500 μg/ml PBS/methanol) [%] | PI (phagocytic index, ingested IgG-sensitized cells per 100 monocytes) (human monocytes; 500 μg/ml PBS/methanol) |
| --- | --- | --- | --- | --- | --- | --- | --- | --- | --- | --- | --- |
| O=C(CCCN1CCC(O)(c2ccc(Cl)cc2)CC1)c1ccc(F)cc1 [Haloperidol, haloperidol] | 0.86 | 0.81 | lower | 0.29 | 0 | 0 | poor tolerance | two rabbits in he H group were sacrificed | – | – | – |
| C[C@]12CC[C@@H]3c4ccc(O)cc4CC[C@H]3[C@@H]1C[C@@H](O)[C@@H]2O [E, estriol] | 0.71 | −0.03 | lower | 0.02 | – | – | – | One rabbit in the E group died | decreased atherosclerosis | – | – |
| CN1CCc2cc(Cl)c(O)cc2[C@@H](c2ccccc2)C1 [SCH-23390] | – | – | – | – | 16 | 38 | – | – | – | – | – |
| CCN1CCCC1CNC(=O)c1cc(S(N)(=O)=O)ccc1OC (stereo not drawn) [Sulpiride, sulpiride] | – | – | – | – | – | – | – | – | – | 59 | 232 |
